Data from article PMC9879991, “Biomolecular condensates formed by designer minimalistic peptides” (Nature Communications, 2023).
No end group written: not given here.

Legend:
[1] = Phase diagram in citrate / tris / ammonium bicarbonate buffers; format: physicochemical; settings: 20 mM citrate (pH 3-7)/tris (pH 7-9)/ammonium bicarbonate (pH 9-12), 0.2 M NaCl, room temperature
Description: Since this analysis is highly sensitive to pH fluctuation, we also created phase diagrams for all peptides using three different buffers that are optimized for specific pH range: citrate buffer for pH 3–7, tris buffer for pH 7–9 and ammonium bicarbonate for pH 9–12 (Supplementary Fig. 1). While the trend in these phase diagrams is similar to that obtained only in tris buffer, the critical pH for LLPS is lower in citrate buffer for all LLPS-promoting peptides (Supplementary Fig. 1).
150 μl of 5 mM, 8 mM, 10 mM, 15 mM, 20 mM, and 30 mM peptide solutions were prepared in either 20 mM tris buffer or 20 mM of the following three buffers: citrate buffer for pH 3–7 tris buffer for pH 7–9 and ammonium bicarbonate for pH 9–12, with 0.2 M NaCl. The pH was increased gradually until a turbidity appeared and measured as described below. All measurements were performed at room temperature. Data points represent averages of three independent measurements. Turbidity of 35 μl samples was estimated in triplicates from sample absorbance at λ = 500 nm as described below.
Supplementary Figure 1. Phase diagram of the peptides as a function of peptide concentration and pH, in different buffers: citrate buffer for pH 3-7, tris buffer for pH 7-9, and ammonium bicarbonate buffer for pH 9-12. 0.2 M NaCl was added to all samples, measurements were obtained at room […]
temperature. […] Values represent average pH of n=3 independent measurements, data are presented as mean values +/- SD. […]

[2] = Turbidity assay of WGR-1 (10 mM) in citrate, Tris and ammonium bicarbonate buffer; format: physicochemical; settings: 10 mM peptide, mean of n=3
Description: Supplementary Figure 2. Turbidity assay of WGR-1 (10 mM) in citrate buffer (pH 6-7), Tris buffer (pH 6-10) and ammonium bicarbonate buffer (ABC, pH 9-10). Turbidity was monitored at λ=500 nm.
Source data are provided as a Source Data file. […]
iii) Performed solution NMR analysis to determine the pKa of the terminal amine for each […]
The results of each analysis are detailed below: i) To analyze the effect of the ions in each of the buffers on peptide LLPS, we performed turbidity assay of 10 mM WGR-1 using citrate buffer at pH 6-7, tris buffer at pH 6-10 and ammonium carbonate buffer at pH 9-10, with 200 mM NaCl. For citrate buffer, we measured sample turbidity at pH 6, the optimal value for this buffer, and in addition at pH 7, to compare the effect of citrate and tris on LLPS. Similarly, we analyzed the turbidity in ammonium bicarbonate buffer at pH 9 in additional to pH 10, to compare the effect of tris and ammonium bicarbonate on LLPS.
Higher turbidity is observed at pH 7 with citrate compared to tris and with ammonium bicarbonate at pH 9-10 compared to tris. […]
bicarbonate facilitate LLPS, presumably by reducing the electrostatic repulsion between […]
citrate and -1/-2 for ammonium bicarbonate). […]
In light of these findings and the obvious ion effect, we decided to present the new phase diagrams in tris in main text Figure 2b and the phase diagrams with the different buffers in Supplementary Fig. 1. The text was revised accordingly (see revised manuscript, revised text is highlighted in red). In addition, the turbidity assay of the different buffers was added to […]
Supplementary Fig. 2. […]

[3] = not given; remark: listed apart in the source

With WGRGRGRGWPGVGY [WGR-1] the “pH at which turbidity (LLPS) appears” value ([1]; 8 mM peptide, replicate 1) was 8.43, the “pH at which turbidity (LLPS) appears” value ([1]; 8 mM peptide, replicate 2) was 8.47 and the “pH at which turbidity (LLPS) appears” value ([1]; 8 mM peptide, replicate 3) was 8.55. For the same sequence, the “pH at which turbidity (LLPS) appears” value ([1]; 10 mM peptide, mean of n=3) was 6.79, the “pH at which turbidity (LLPS) appears” value ([1]; 10 mM peptide, replicate 1) was 6.32 and the “pH at which turbidity (LLPS) appears” value ([1]; 10 mM peptide, replicate 2) was 7.04. The “pH at which turbidity (LLPS) appears” value ([1]; 10 mM peptide, replicate 3) was 7.01, the “pH at which turbidity (LLPS) appears” value ([1]; 15 mM peptide, mean of n=3) was 6.34 and the “pH at which turbidity (LLPS) appears” value ([1]; 15 mM peptide, replicate 1) was 6.41. For the same sequence, the “pH at which turbidity (LLPS) appears” value ([1]; 15 mM peptide, replicate 2) was 6.41, the “pH at which turbidity (LLPS) appears” value ([1]; 15 mM peptide, replicate 3) was 6.2 and the “pH at which turbidity (LLPS) appears” value ([1]; 20 mM peptide, mean of n=3) was 4.96. For the same sequence, the “pH at which turbidity (LLPS) appears” value ([1]; 20 mM peptide, replicate 1) was 5.1, the “pH at which turbidity (LLPS) appears” value ([1]; 20 mM peptide, replicate 2) was 4.89 and the “pH at which turbidity (LLPS) appears” value ([1]; 20 mM peptide, replicate 3) was 4.89. For the same sequence, the “pH at which turbidity (LLPS) appears” value ([1]; 30 mM peptide, replicate 1) was 4.78, the “pH at which turbidity (LLPS) appears” value ([1]; 30 mM peptide, replicate 2) was 4.27 and the “pH at which turbidity (LLPS) appears” value ([1]; 30 mM peptide, replicate 3) was 4.52. The “Turbidity as asorbance at 500 nm” value ([2]; AC (ammonium bicarbonate) buffer, pH 9, 200 mM NaCl) was 2.028, the “Turbidity as asorbance at 500 nm” value ([2]; AC (ammonium bicarbonate) buffer, pH 10, 200 mM NaCl) was 2.068 and the “Turbidity as asorbance at 500 nm” value ([2]; Tris buffer, pH 6, 200 mM NaCl) was 0.007333. For the same sequence, the “Turbidity as asorbance at 500 nm” value ([2]; Tris buffer, pH 7, 200 mM NaCl) was 0.01967, the “Turbidity as asorbance at 500 nm” value ([2]; Tris buffer, pH 8, 200 mM NaCl) was 0.2073 and the “Turbidity as asorbance at 500 nm” value ([2]; Tris buffer, pH 9, 200 mM NaCl) was 1.416. For the same sequence, the “Turbidity as asorbance at 500 nm” value ([2]; Tris buffer, pH 10, 200 mM NaCl) was 1.71, the “Turbidity as asorbance at 500 nm” value ([2]; citrate buffer, pH 6, 200 mM NaCl) was 0.02367 and the “Turbidity as asorbance at 500 nm” value ([2]; citrate buffer, pH 7, 200 mM NaCl) was 0.974. It also gave a differential NaCl-induced change (20 vs 5 mM), average of 3.5 Hz and a differential NaCl-induced change, largest (residue P10) [3] of 5.5 Hz.
